Measurements from publication PMC8829777 (Molecular Therapy. Methods & Clinical Development, 2022).

System: PBMCs
Test: IL-2 ELISpot of in vitro expanded PBMCs
Type: cell-based, human
Conditions: peptides from other AAV serotypes; PBMCs from four healthy individuals; Figure S11

With FTVDNNGLY [AAV1 (6)_713-721 N718] the “IL-2 response / secretion” value was “decreased IL-2 response”.
